In patent US20260234150A1, “COMPOUND FOR INHIBITING NLRP3, PREPARATION METHOD, AND USE” (DOVETREE MEDICINES UNUS, INC., priority 2023, published 2026):
Read-outs that look alike come from different tables or passages of the source.

Columns and labels:
[1] = system: IL-1β secretion of THP-1 cells; experiment: Effect of NLRP3 inhibitor on IL-1β secretion of THP-1 cells (AlphaLISA); type: cell-based; conditions: Homo sapiens; PMA, LPS and Nigericin stimulated THP-1 cells, IL-1β in supernatant; read-out: IC50 (nM), THP-1 cells to detect NLRP3 inhibitors
Method: This experiment used the PerkinElmer AlphaLISA_human_IL1β kit (AL220 C/F). The detection buffer was RPMI-1640+10FBS. AlphaLISA Immunoassay Buffer, AlphaLISA Anti-IL1β Acceptor beads, Streptavidin (SA)-coated Donor beads, and Biotinylated Antibody Anti-IL1β were all included in the kit.
The density of THP1 cells was adjusted to 4×10^5 cells/mL, PMA (final concentration 50 nM) was added, inoculated into 96-well flat-bottom plates at 200 μL/well, and stimulated overnight at 37° C., 5% CO2 (try to <16h). The next day, the supernatant was discarded, and the flat washed twice with DPBS ([…]/time). Then LPS solution (final concentration of 100 ng/ml) was added at 198 μL/well, incubated at 37° C., 5% CO2 for 3h. 1 μL of the corresponding concentration of compounds was added to each well according to the experimental MAP, incubated at 37° C., 5% CO2 for 1 h. 1 μL Nigericin (final concentration of […]) was added to each well, incubated overnight at 5% CO2 (>18h). On the third day, 5 μL of supernatant was taken, diluted 20 times, and the content of IL-Iβ in the supernatant was detected by Human Interleukin 1 beta (IL1β) Kit. Envision was used to read the AlphaLISA test value of Ex=680/[…]. GraphPad Prism 9.5.0 was used to analyze the data, and the IC50 value of the compound for IL-Iβ antagonism was fitted by four-parameter Logistic.

[2] = Pharmacokinetic evaluation in mice; type: in vivo; conditions: mouse, plasma, ICR male mice
Method: Purpose: ICR male mice were selected as test animals. The LC-MS/MS method was used to quantitatively determine the drug concentration in the plasma of mice at different time points after intravenous injection or oral administration of the test compound to evaluate the pharmacokinetic characteristics of the test drug in mice.
Experimental materials: ICR mice (male, 15-35g, 5-10 weeks old, Shanghai Xipu-Bikai Experimental Animal Co., Ltd.)
The clear solution of the test compound was injected into ICR mice via the tail vein (without fasting, vehicle: 5% DMSO/10% Solutol/85% Saline) and administered to ICR mice by gavage (fasting for 10-14h). For intravenous administration, blood was collected from the submandibular venous plexus at 0.033, 0.083, 0.25, 0.5, 1, 2, 4, 8, and 24 hrs after administration, placed in an EDTA-K2 anticoagulant tube (Jiangsu Kangjian Medical Supplies Co., Ltd.), mixed, and centrifuged at 2-8° C., 6800 g for 6 minutes to obtain plasma; for oral gavage administration, blood was collected from the submandibular venous plexus at 0.083, 0.25, 0.5, 1, 2, 4, 6, 8, and 24 hrs after administration, placed in an EDTA-K2 anticoagulant tube (Jiangsu Kangjian Medical Supplies Co., Ltd.), mixed, and centrifuged at 2-8° C., 6800 g for 6 minutes to obtain plasma. The blood drug concentration was determined by LC-MS/MS, and the pharmacokinetic software Phoenix WinNonlinTM Version 7.0 (Pharsight, USA) was used to calculate the relevant pharmacokinetic parameters by the non-compartmental linear logarithmic trapezoidal method. The compounds of the present disclosure have good pharmacokinetic characteristics in mice, and the test results of representative compounds are shown in Table 8.

## CC(=O)N1CCOC[C@H]1CNc1nc2nc(-c3c(C)cc(C(F)(F)F)cc3O)ccc2o1 [Compound 111]
[1]
  IC50: < 50 nM
[2]; 1 mg/kg, Dosage IV/PO 1/3 mg/kg
  clearance: 19.2 mL/min/kg
[2]; 1 mg/kg, Dosage IV/PO 1/3 mg/kg, read-out: Vdss
  Vd: 1.93 L/kg
[2]; Dosage IV/PO 1/3 mg/kg
  Cmax: 1550 ng/mL
  bioavailability: 137%
[2]; IV 1 mg/kg, read-out: AUC0-last IV
  AUC(0-t): 834 ng·h/mL
[2]; IV 1 mg/kg, read-out: T1/2 (IV, h) (converted)
  half-life: 2.12 h
[2]; PO 3 mg/kg, read-out: AUC0-last PO
  AUC(0-t): 3440 ng·h/mL
